Test results reported in US7186879B2, “Screening systems and methods for identifying modulators of xenobiotic metabolism” (Baylor College of Medicine, priority 2001, dated 2007).
Entries after “also recorded” stand apart in the source; their conditions may differ.

Legend:
[1] = system: wild-type and CAR −/− mice; conditions: acute treatment (Heubel et al.); cited from earlier work
murine CAR receptor = biological target: T1, murine CAR receptor (Mus musculus, UniProt O35627, M138L); conditions: cited from earlier work
T1 sequence (O35627 1-358 M138L): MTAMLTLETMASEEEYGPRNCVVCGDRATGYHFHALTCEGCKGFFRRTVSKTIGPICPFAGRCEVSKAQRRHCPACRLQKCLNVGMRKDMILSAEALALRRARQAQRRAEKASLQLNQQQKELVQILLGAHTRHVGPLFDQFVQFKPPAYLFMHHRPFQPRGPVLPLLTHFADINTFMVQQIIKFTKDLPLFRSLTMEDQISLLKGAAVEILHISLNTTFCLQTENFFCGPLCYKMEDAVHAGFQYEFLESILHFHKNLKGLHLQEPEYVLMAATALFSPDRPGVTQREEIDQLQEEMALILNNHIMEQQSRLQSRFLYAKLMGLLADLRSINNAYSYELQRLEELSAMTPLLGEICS

[2] = system: CYP2E1, CYP1A2, CYP3A11, GSTPi; test: Northern blot of APAP metabolizing genes in liver of wild-type and CAR null mice; conditions: for suppression of CYP2E1 and induction of CYP1A2, CYP3A11, GSTPi: CAR null mice; for CYP1A2 mRNA / CYP2E1 mRNA levels / CYP3A11 mRNA / GSTPi mRNA: wild-type animals, three days pretreatment
Description: CAR (+/+) or CAR (−/−) animals pretreated with phenobarbital (PB), TCPOBOP (TC), or vehicle alone were administered a 250 mg/kg dose of APAP by intraperitoneal injection (n=5–7 per treatment group) (FIG. 11A). […] Liver sections from different treatments were examined by histological staining (FIG. 11B). Liver samples from all treated animals were analyzed but only representative histology is presented. […] CAR (+/+) or CAR (−/−) animals were pretreated with PB, TCPOBOP (TC), or vehicle alone for three days (FIG. 11C). […] Liver samples treated as indicated were collected two hours after APAP and GSH levels were measured (n=5–7) (FIG. 11D).
CAR (+/+) and CAR (−/−) animals were given 250 mg/kg, 500 mg/kg, or 800 mg/kg doses of APAP, respectively (FIG. 12A). […] Total liver RNA was prepared from 500 mg/kg APAP treated CAR (+/+) and CAR (−/−) livers at 0 and 2 hours as indicated. […] The same blot was stripped and re-probed with β-actin as loading control.
For histologic examination of the treated mice, the left lobe of the livers was removed and immediately fixed in 4% formaldehyde-PBS solution, embedded in paraffin, sectioned at 5 μm, and stained with hematoxylin and eosin. Samples were examined under a light microscope. For RNA studies, total RNA was extracted using TRIzol Reagent (Invitrogen Life Technologies, Carlsbad, Calif.) according to the manufacture's instruction. Equivalent amount of RNA from 3–5 mice were pooled and 10 μg of each sample was subjected to northern blot analysis. […] Hepatic non-protein thiol was measured as an indication of hepatic GSH content. Mice were sacrificed two hours after intraperitoneal injection with APAP. […] Supernatant (0.5 ml) was mixed with 1.5 ml 0.1 mM Ellman's reagent [5,5′-dithio-bis(2-nitrobenzoic acid)] […] Absorbance was read at 412 nm using GSH solutions as quantitative standards.

human CAR [3] = biological target: T2, human CAR (Homo sapiens, UniProt Q14994); test: Northern blot of gene induction in CAR humanized mice; conditions: CAR humanized animals
T2 sequence (Q14994 1-348 isoform Q14994-2): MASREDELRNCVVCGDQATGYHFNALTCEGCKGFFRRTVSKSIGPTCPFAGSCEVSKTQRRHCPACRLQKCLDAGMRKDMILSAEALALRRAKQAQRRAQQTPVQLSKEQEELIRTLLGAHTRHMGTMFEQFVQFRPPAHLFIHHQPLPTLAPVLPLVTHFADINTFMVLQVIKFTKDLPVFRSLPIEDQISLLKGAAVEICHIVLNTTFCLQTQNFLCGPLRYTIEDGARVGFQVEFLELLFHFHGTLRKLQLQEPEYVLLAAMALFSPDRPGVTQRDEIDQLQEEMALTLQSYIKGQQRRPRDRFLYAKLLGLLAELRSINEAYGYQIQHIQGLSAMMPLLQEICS
Description: CAR humanized mice (n=3) were treated with 500 mg/kg APAP or vehicle. After two hours, total liver RNA was prepared and subjected to Northern blot analysis with indicated probes.

human CAR [4] = biological target: T2, human CAR; test: Sensitivity of CAR humanized mice to APAP, serum ALT; set-up: expressed in transfected cells; host or cells: liver of transgenic C57BL/6 mice (line 6210, albumin promoter), crossed onto the murine CAR -/- background; conditions: CAR humanized mice pretreated three days, APAP 250 mg/kg
Description: FIG. 13 illustrates the sensitivity of CAR humanized mice to APAP. CAR humanized mice (n=3) were pretreated with phenobarbital (PB) or vehicle alone for three days and administered a 250 mg/kg dose of APAP by intraperitoneal injection. Serum was collected and alanine aminotransferase (ALT) levels were measured after 24 hours.

Compound: Clc1cnc(Oc2ccc(Oc3ncc(Cl)cc3Cl)cc2)c(Cl)c1 [TCPOBOP, 1,4-bis[2-(3,5-dichloropyridyloxy)]benzene]
- increase in liver mass relative to total body mass [1]: up to 2 fold
- activity on murine CAR receptor (murine CAR receptor): agonist ligand; also recorded: activate murine CAR
- suppression of CYP2E1 and induction of CYP1A2, CYP3A11, GSTPi [2]: Neither the suppression of CYP2E1 nor the induction of the other enzymes was observed
- CYP1A2 mRNA [2]: induced
- CYP2E1 mRNA levels [2]: modestly suppressed
- CYP3A11 mRNA [2]: induced
- GSTPi mRNA [2]: induced

Compound: CCC1(c2ccccc2)C(=O)NC(=O)NC1=O [PB, phenobarbital]
- expression of CYP1A2 and CYP3A11 mRNAs (human CAR [3]): induced expression
- sensitivity to APAP (human CAR [4]): increased sensitivity to APAP
- suppression of CYP2E1 and induction of CYP1A2, CYP3A11, GSTPi [2]: Neither the suppression of CYP2E1 nor the induction of the other enzymes was observed
- CYP1A2 mRNA [2]: induced
- CYP2E1 mRNA levels [2]: modestly suppressed
- CYP3A11 mRNA [2]: induced
- GSTPi mRNA [2]: induced
